Experimental data reported in US12428465B2, “Therapeutic peptides and methods for treating type 2 diabetes” (OP-T LLC, priority 2018, dated 2025).

Key:
ApoE-/- mice [1] = assay: LDL cholesterol in ApoE-/- mice; format: in vivo, mouse; details: 1 mg/kg IV once a week for 4 weeks
Procedure: In this study, six ApoE−/− mice received a normal chow diet from 0 to 20 weeks of age. At 20 weeks of age, three mice were randomly assigned to receive dose of 1 mg/kg of KGYY6 (6-mer-SEQ ID NO:29) by IV tail injection, once a week for a period of 4 weeks. Control mice received vehicle only.

ApoE-/- mice [2] = assay: Atherosclerotic changes in high fat diet ApoE-/- mice (Sudan IV en-face, Paigen method, trichrome); format: in vivo, mouse
Procedure: ApoE−/− mice were fed a high fat diet for 16 weeks. Mice were randomly assigned to receive dose of 1 mg/kg of KGYY6 (6-mer-SEQ ID NO:29) by IV tail injection, once a week for a period of 4 weeks. Control mice received vehicle only. Atherosclerosis was investigated by several methods. […] FIG. 28A is an image of KGYY6 treated aortic en-face Sudan IV staining and FIG. 28B is an image of control (untreated) aortic en-face Sudan staining.
Further, measurement of plaque area and morphology was performed using the Paigen method. This method obtains sequential 5 μm aortic cross sections from the aortic root beginning at the valve leaflets into the ascending aorta. At 50 μm intervals, slides are stained after which the area of atherosclerotic lesion is measured. Individual plaque area measurements are plotted against the micrometer intervals and a curve is established, with the area under the curve (AUC) giving the total volume of plaque.

ApoE-/- mice [3] = assay: Glucose tolerance testing and serum insulin in high fat diet ApoE-/- mice; format: in vivo, mouse
Source text: One example of a disease that is particularly amenable to treatment using a peptide of the present developments may be type 2 diabetes. In type 2 diabetes, glucose tolerance is reduced, insulin sensitivity is decreased, and plasma insulin levels are increased. Consequently, control of inflammatory cells and cell signaling via CD40-CD154 interaction may be able to be used to control, modulate, reduce and/or reverse type 2 diabetes symptoms that are characterized as by glucose intolerance, insulin resistance, and increased plasma insulin levels. Several murine models of T2D and/or atherosclerosis have been developed. For initial studies, ApoE−/− mice were selected due to their ability to develop type 2 diabetes from a high fat diet. Glucose tolerance and insulin testing were performed on all of the mice. The mice were administered the 6-mer peptide (SEQ ID NO:29) at a rate of 1 mg/kg weekly via I.V, injection and monitored. […] Thus, one embodiment of the present developments is a method to prevent type 2 diabetes in an individual at risk for developing type 2 diabetes, the method comprising administering to the individual a peptide to selectively bind to a CD40 expressing cell. In such an embodiment, the peptide may be selected from SEQ ID NOS: 3-9 and 24-30.
ApoE−/− mice were fed a 60% high fat diet (research diet) for 1 week. A select population of mice were then injected with 6-mer peptide at a dose of 1 mg/kg and others were untreated and tracked as controls. Glucose tolerance testing (GTT) was performed by fasting 6 hours, followed by intraperitoneal injection of 1 g/kg body weight glucose in water. Both blood glucose and blood serum insulin were measured at 0, 15 minutes, 30 minutes, 60 minutes, and 2 hours.

GLUT4 = assay: Western analysis of GLUT4 in adipose and muscle tissue of treated mice; format: in vivo, mouse; details: treated versus untreated mice
Source text: GLUT4 is responsible for glucose uptake in response to insulin and known to have reduced expression in type 2 diabetes.

Th40 cells = assay: Cytokine production of splenic lymphocytes (Th40 cells) treated in vitro, flow cytometry; format: cell-based, mouse; details: splenic lymphocytes of ApoE-/- and C57BL/6 mice, 24 hours in vitro, varying concentrations
Procedure: Spleens from ApoE mice and C57BL/6 mice were processed for lymphocytes. ApoE−/− and C57BL/6 mice were fed a 60% high fat diet (research diet) for 1 week. Splenic lymphocytes were treated with 6-mer in vitro for 24 hours. Cells were placed in media overnight in the presence of varying concentrations of 6-mer peptides. The following morning. Brefeldin A was administered for 4 hours. All cells were stained for CD3, CD4, CD40 (Th40 cells) and measured by use of flow cytometry for their production of IL2, INFγ, and IL17a.

NOD mice [4] = assay: Development of diabetes in NOD mice treated with CD154 peptides; format: in vivo, mouse; details: 25 ug (1 mg/kg) tail vein weekly from 6 weeks of age
Procedure: (§1) Peptides were designed based on the amino acid sequence of mouse CD154 protein (SEQ ID NO:1) in the SwissPro database. […] Weekly after the initial injection, another 25 ug of peptide (or 100 ul of saline in the case of the Control mice) was injected into the tail vein. At 10 weeks of age, mice were monitored for diabetes, as indicated by a blood glucose level greater than 250 mg/dL for three consecutive days. During this time, blood was also taken from the tail vein, or by sub-mandibular venal puncture, and the level of CD4+ and CD8+ cells determined by flow cytometry using antibodies for CD4 protein and CD8 protein.

NOD mice [5] = assay: CD4/CD8 ratio in blood of treated NOD mice by flow cytometry; format: in vivo, mouse; details: 25 ug (1 mg/kg) tail vein weekly
Procedure: as §1

NOD mice [6] = assay: Reversal of hyperglycemia in newly diabetic NOD mice; format: in vivo, mouse
Procedure: Six mice from Example 1 that were not treated were allowed to subsequently develop diabetes. These mice were injected intravenously with 100 ug of the 15-mer peptide. These mice were then given weekly injections of the 15-mer peptide into their tail veins, and their blood glucose levels monitored twice-weekly. The 15-mer peptide was administered for a total of ten weeks, after which the treatment was stopped.
(§2) At the onset of diabetes, six NOD mice were injected with […] of the 15-mer peptide, resulting in the reversal of hyperglycemia in 80% of the recipients. Six weeks after reversal of hyperglycemia, mice were sacrificed, and the pancreas removed for analysis. The pancreas was fixed, sectioned and then stained using an aldehyde/fuschsin stain that allows detection of insulin granules. Granulation of the tissue was scored as follows: 4=completely granulated; 3=75% of islet granulated; 2=50% of islet granulated, and peri-insulitis; 1=25% of islet granulated; 0=no insulin granules detected.

CD40+ T-cells = assay: Binding of FITC-labeled 15-mer peptide to Th40 cells, flow cytometry; set-up: species or system mouse; details: lymphocytes of 9 week old NOD mice
Procedure: Total lymphocytes were isolated from 9 week old NOD mice. The lymphocytes were incubated with anti-CD4, anti-CD8, anti-CD40 and an FITC-labeled 15-mer peptide, and then analyzed by flow cytometry. Cells were gated for CD4 (both CD4hi and CD4lo populations were included) and CD40 versus the 15-mer peptide.

B cells = assay: Binding of FITC-labeled 15-mer peptide to B cells, flow cytometry; set-up: species or system mouse; details: spleen B cells of NOD mice, 90% CD40 positive
Procedure: B cells were isolated from the spleens of NOD mice. Sorted MHC-II+ cells were purified from total lymphocytes. Cells were stained with FITC-labeled 15 mer peptide, anti-CD40, and B cell markers CD19 and CD21. MHC-II+ cells were gated for CD19+ and CD21+ and then 15-mer peptide versus CD40 antibody was measured.

blood cells = assay: Binding of biotin-conjugated 15-mer peptide to whole blood cells, HRP-avidin absorbance at 405 nm; set-up: species or system human; details: 1 ml whole blood
Procedure: 1 ml of whole blood was obtained from each individual and incubated with biotin-conjugated, 15-mer peptide. The cells were then exposed to horseradish peroxidase (HRP)-avidin, washed and the absorbance at 405 nm determined using a spectrophotometer.

NOD mice [7] = assay: Insulin granulation of the pancreas in NOD mice, aldehyde/fuschsin stain; format: in vivo, mouse; details: six weeks after reversal of hyperglycemia; versus irrelevant peptide
Procedure: as §2

ApoE deficient mice = assay: Atherosclerosis in ApoE deficient mice, lesser curvature of the aortic arch; format: in vivo, mouse; details: 1 mg/kg IV three times a week from 9 weeks of age, normal chow
Procedure: ApoE deficient mice on a normal chow diet were selected to receive a dose of 1 mg/kg of the 15-mer peptide (SEQ ID NO: 7) by IV tail injection, three times a week over a period of […], beginning at 9 weeks of age and also utilized a control. At 25 weeks, the animals were euthanized, weighed, and then had blood, spleen, and pancreas removed for analysis. The subjects were then perfused through cardiac puncture with 4% paraformaldehyde. Aortic arches were dissected, dehydrated in sucrose gradient and then flash frozen.
FIG. 17 provides an example of the lesser curvature of the aortic arch, defined proximally from the aortic outflow (AO). Of the segments seen in the trichrome stain, an intimal distance of […] was measured distally. The aortic-arch wall area subtended by this 2.5 mm stretch of the intima was calculated for each section of all mice, with maximal area of the inner-aortic-arch wall of each mouse used to compute averages per group. The luminal surface (L), aortic arch (AO), and innominate artery (I) are labelled in this FIG. 17.
Plaque was subdivided based on morphology of early lesions (observable as fatty streaks containing macrophage derived foam cells with varying degrees of lipid accumulation) compared with more advanced fibroatheromas (containing varying degrees of lipid or necrotic core and fibrous caps). […]

ApoE-/- mice [8] = assay: Existing atherosclerotic disease in ApoE-/- mice, plaque cap and core measurements; format: in vivo, mouse; details: 1 mg/kg IV once a week for 4 weeks from 20 weeks of age
Procedure: In this study, six ApoE−/− mice received a normal chow diet from 0 to 20 weeks of age. At 20 weeks of age, three mice were randomly assigned to receive dose of 1 mg/kg of KGYY15 (15-mer-SEQ ID NO:7) by IV tail injection, once a week for a period of 4 weeks. Control mice received vehicle only. After 4 weeks of treatment, animals were euthanized then perfused through cardiac puncture with 4% paraformaldehyde. Aortic arches were dissected in surcrose gradient and flash frozen. Approximately fifty, 8 um longitudinal sections were obtained per mouse. Slides were treated with trichrome stain and analyzed using cellSens software for measurements. Total plaque was measured including 2.5 mm lesser curvature and innominate artery.

[9] = Clot study of whole human blood in the presence of peptide; details: dosing levels similar to murine studies
Procedure: Whole human blood was administered the peptide in accordance with similar dosing levels to those used for murine studies.

human B cells = details: cited from earlier work
[10] = high fat diet 16 weeks, 1 mg/kg IV once a week for 4 weeks
[11] = trichrome staining, Image Pro Plus analysis

AKKGYY [KGYY6, 6-mer peptide from CD154]
reduction in LDL cholesterol values versus untreated mice (ApoE-/- mice [1]): > 50% | lesion areas, en-face Sudan IV stain (ApoE-/- mice [2]; [10]): significant reduction | plaque volume (area under the curve, Paigen method) (ApoE-/- mice [2]; [10]): reduction | plaque composition: collagen (ApoE-/- mice [2]; [11]): increased | plaque composition: smooth muscle content (ApoE-/- mice [2]; [11]): reduced | insulin sensitivity compared to controls (ApoE-/- mice [3]; 1 mg/kg): significantly improved | plasma insulin levels compared to controls (ApoE-/- mice [3]; 1 mg/kg): lowered | insulin resistance compared to controls (ApoE-/- mice [3]; 1 mg/kg weekly I.V.): improve | glucose tolerance compared to controls (ApoE-/- mice [3]; 1 mg/kg, GTT 1 g/kg glucose i.p. after 6 hours fasting): significantly increased | expression of GLUT4 in muscle tissue (GLUT4): increased expression | expression of GLUT4 in white adipose tissue (GLUT4): increase in expression | inflammatory cytokine production of IL2, INFγ, and IL17a (Th40 cells): affects

VLQWAKKGYYTMK [13-mer peptides, 13-mer peptide derived from the CD154 protein]
development of diabetes (blood glucose greater than 250 mg/dL for three consecutive days) (NOD mice [4]): significant effects on the development of diabetes

VLQWAKKGYYTMKSN (VLQWAKKGYYTMKSK) [15-mer peptide, 15-mer peptide derived from the mouse CD154 protein]
development of diabetes (blood glucose greater than 250 mg/dL for three consecutive days) (NOD mice [4]): prevented the onset of diabetes | compromise of the immune system as determined by the CD4/CD8 ratio (NOD mice [5]): did not result in compromise of the immune system | reversal of hyperglycemia in already diabetic mice (NOD mice [6]; 100 ug IV then weekly injections for ten weeks): can reverse hyperglycemia | recipients with reversal of hyperglycemia (NOD mice [6]; six NOD mice injected with 100 ug/ml at the onset of diabetes): 80% | return of hyperglycemia after cessation of the treatment (NOD mice [6]; treatment stopped after ten weeks): ≤ 5 weeks | CD40+ T-cells that bind the peptide (CD40+ T-cells): 90% | B cells that bound the peptide (B cells): 8% | peptide binding activity of blood cells, type-I diabetes patients versus non-diabetic controls (blood cells): higher | insulin granules in the pancreas (NOD mice [7]): preserved insulin granules in the majority of the mice | total area of the 2.5 mm segment of the aortic-arch wall (ApoE deficient mice): substantially reduced | total number of plaque (early lesions and advanced plaque) (ApoE deficient mice): significantly decreased | average cap width (cap size) (ApoE-/- mice [8]): greater | average core width (core size/plaque size) (ApoE-/- mice [8]): decreased | cap to core ratio of advanced plaques (ApoE-/- mice [8]): reduced | number of individual early plaques and advanced plaques (ApoE-/- mice [8]): reduced | clotting of whole human blood [9]: does not modify or change the clotting

Cc1ccc(C(=O)Nc2ccc(S(=O)(=O)O)c3cc(S(=O)(=O)O)cc(S(=O)(=O)O)c23)cc1NC(=O)c1cccc(NC(=O)Nc2cccc(C(=O)Nc3cc(C(=O)Nc4ccc(S(=O)(=O)O)c5cc(S(=O)(=O)O)cc(S(=O)(=O)O)c45)ccc3C)c2)c1 [suramin]
CD154-induced proliferation of human B cells (human B cells): prevented
